Values of other authors in paper PMC6545338, “Novel chemical starting points for drug discovery in leishmaniasis and Chagas disease” (International Journal for Parasitology: Drugs and Drug …, 2019).

System: T. cruzi
Parameters: method as in Morillo et al., 2017a
Details: ref Morillo et al., 2017a; for Efficacy in the STOP-CHAGAS trial: patients

Row | Compound | Efficacy in the STOP-CHAGAS trial [%] | Patients who had to permanently discontinue treatment due to side effects (benznidazole-treated group) [%]
1 | CC[C@@H]([C@H](C)O)n1ncn(-c2ccc(N3CCN(c4ccc(OC[C@@H]5CO[C@@](Cn6cncn6)(c6ccc(F)cc6F)C5)cc4)CC3)cc2)c1=O [posaconazole] | 19 | –
2 | O=C(Cn1ccnc1[N+](=O)[O-])NCc1ccccc1 [benznidazole] | 62 | 32
